The values that follow come from ChEMBL document CHEMBL3991601, “The target landscape of clinical kinase drugs” (Science, 2017).

One may read the Kd as the constant that tells how readily two partners part at equilibrium.

The source made the active and inactive calls. Bounds are passed on as bounds.

One assay has as its target Actin-related protein 2 (Homo sapiens, UniProt P61160).
Assay [1] has as its target RAC-alpha serine/threonine-protein kinase (Homo sapiens, UniProt P31749).
Assay [2] addresses T1, Cysteine--tRNA ligase, cytoplasmic (Homo sapiens, UniProt P49589).
T1 sequence (P49589 whole entry): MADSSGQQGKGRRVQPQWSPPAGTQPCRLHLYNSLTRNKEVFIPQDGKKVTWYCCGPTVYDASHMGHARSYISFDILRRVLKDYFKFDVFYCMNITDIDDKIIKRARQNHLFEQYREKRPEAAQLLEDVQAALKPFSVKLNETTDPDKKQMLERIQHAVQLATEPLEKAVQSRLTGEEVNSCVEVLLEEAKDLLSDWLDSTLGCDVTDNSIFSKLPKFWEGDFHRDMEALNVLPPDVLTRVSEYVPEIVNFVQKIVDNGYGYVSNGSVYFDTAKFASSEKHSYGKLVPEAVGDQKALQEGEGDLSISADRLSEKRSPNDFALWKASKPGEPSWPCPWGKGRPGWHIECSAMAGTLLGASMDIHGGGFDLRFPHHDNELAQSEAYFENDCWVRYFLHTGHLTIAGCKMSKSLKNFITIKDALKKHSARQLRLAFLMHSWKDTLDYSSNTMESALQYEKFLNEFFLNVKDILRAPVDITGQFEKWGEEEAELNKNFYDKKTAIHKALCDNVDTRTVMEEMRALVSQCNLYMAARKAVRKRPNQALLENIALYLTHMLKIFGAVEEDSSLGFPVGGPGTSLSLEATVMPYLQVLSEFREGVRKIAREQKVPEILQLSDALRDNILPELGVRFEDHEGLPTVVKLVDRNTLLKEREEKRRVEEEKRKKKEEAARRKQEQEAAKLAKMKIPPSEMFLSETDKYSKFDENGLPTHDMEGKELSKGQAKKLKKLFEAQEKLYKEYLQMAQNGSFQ

Assay [3] addresses Dual specificity mitogen-activated protein kinase kinase 2 (Homo sapiens, UniProt P36507).
Assay [4] has as its target T2, Serine/threonine-protein kinase Nek3 (Homo sapiens, UniProt P51956).
T2 sequence (P51956 whole entry): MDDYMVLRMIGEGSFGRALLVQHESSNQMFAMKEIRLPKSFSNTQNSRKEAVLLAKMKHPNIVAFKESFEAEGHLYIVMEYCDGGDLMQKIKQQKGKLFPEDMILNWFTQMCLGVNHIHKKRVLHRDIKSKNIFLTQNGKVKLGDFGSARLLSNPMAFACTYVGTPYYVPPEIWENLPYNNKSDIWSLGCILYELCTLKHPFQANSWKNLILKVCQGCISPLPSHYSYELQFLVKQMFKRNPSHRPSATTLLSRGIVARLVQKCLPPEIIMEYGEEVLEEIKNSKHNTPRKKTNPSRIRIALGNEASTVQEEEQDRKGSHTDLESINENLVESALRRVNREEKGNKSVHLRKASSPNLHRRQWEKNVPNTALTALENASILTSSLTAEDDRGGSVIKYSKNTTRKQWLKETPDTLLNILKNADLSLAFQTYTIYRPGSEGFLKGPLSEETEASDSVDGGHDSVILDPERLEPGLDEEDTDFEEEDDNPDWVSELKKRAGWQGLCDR

For assay [5], the target named is cAMP-dependent protein kinase type II-alpha regulatory subunit (Homo sapiens, UniProt P13861).
The target in assay [6] is Receptor-interacting serine/threonine-protein kinase 2 (Homo sapiens, UniProt O43353).
Assay [7] deals with T3, Serine/threonine-protein kinase TAO2 (Homo sapiens, UniProt Q9UL54).
T3 sequence (Q9UL54 whole entry): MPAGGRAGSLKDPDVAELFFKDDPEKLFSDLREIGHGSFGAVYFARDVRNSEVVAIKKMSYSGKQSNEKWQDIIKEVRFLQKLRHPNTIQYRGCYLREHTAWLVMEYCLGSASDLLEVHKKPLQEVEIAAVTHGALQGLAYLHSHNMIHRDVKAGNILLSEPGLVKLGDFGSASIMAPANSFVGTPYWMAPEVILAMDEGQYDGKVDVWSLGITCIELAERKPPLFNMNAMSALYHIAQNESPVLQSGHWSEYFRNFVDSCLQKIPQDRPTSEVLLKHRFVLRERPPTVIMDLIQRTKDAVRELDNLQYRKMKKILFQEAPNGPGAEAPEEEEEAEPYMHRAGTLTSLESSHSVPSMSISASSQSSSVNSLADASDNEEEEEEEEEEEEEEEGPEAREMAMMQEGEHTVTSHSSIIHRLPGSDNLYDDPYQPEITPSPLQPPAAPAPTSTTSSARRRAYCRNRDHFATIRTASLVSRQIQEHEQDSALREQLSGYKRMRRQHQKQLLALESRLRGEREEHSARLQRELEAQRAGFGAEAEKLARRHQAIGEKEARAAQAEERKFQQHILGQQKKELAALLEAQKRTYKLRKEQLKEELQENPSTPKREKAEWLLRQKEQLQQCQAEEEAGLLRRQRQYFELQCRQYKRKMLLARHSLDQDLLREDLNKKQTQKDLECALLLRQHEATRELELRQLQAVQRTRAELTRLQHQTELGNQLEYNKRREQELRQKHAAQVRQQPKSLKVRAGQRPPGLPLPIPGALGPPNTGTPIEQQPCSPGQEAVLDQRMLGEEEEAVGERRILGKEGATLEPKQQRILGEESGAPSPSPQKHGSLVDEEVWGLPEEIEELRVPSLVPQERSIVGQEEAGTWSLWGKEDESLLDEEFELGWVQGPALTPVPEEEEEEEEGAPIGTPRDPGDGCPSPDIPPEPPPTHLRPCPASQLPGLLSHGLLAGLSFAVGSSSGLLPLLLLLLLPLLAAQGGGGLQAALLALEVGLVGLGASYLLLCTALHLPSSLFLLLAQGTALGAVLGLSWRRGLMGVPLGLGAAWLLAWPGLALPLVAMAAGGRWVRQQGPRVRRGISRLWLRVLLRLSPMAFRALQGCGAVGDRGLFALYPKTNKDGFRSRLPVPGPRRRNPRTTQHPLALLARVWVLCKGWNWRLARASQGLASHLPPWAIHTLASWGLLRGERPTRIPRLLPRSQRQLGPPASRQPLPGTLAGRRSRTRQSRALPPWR

Another assay concerns the target DNA topoisomerase 2-beta (Homo sapiens, UniProt Q02880).
Assay [8] has as its target Glycogen synthase kinase-3 beta (Homo sapiens, UniProt P49841).
Note: in the data inactive means no Kd found up to 30 µM.

Sequence of RAC-alpha serine/threonine-protein kinase (P31749 whole entry): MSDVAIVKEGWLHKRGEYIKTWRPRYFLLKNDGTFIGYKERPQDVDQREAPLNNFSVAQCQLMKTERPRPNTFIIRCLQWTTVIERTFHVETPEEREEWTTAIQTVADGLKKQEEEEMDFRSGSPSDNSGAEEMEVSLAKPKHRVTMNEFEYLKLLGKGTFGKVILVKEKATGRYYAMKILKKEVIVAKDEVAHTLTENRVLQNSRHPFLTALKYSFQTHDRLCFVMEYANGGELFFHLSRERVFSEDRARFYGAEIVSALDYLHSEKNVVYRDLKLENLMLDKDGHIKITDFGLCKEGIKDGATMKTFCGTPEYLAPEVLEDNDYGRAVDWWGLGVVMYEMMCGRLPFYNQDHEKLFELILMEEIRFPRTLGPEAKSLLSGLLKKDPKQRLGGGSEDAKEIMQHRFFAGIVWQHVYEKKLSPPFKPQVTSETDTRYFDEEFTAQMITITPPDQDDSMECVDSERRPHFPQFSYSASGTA
Sequence of Receptor-interacting serine/threonine-protein kinase 2 (O43353 whole entry): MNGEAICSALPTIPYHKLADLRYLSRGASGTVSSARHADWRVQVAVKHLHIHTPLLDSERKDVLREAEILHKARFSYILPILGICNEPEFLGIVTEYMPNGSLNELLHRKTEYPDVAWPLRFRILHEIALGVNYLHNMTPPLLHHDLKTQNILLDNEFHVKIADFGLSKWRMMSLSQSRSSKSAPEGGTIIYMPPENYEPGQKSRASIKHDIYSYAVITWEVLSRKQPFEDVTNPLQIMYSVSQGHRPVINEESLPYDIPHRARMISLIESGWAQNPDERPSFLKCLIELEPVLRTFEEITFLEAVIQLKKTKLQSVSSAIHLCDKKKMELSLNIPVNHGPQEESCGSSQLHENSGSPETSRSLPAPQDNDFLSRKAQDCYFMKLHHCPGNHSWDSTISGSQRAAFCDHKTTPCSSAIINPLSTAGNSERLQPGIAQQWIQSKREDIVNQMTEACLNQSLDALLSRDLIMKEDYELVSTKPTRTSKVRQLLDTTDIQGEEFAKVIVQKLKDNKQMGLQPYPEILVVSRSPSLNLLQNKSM
Sequence of Glycogen synthase kinase-3 beta (P49841 whole entry): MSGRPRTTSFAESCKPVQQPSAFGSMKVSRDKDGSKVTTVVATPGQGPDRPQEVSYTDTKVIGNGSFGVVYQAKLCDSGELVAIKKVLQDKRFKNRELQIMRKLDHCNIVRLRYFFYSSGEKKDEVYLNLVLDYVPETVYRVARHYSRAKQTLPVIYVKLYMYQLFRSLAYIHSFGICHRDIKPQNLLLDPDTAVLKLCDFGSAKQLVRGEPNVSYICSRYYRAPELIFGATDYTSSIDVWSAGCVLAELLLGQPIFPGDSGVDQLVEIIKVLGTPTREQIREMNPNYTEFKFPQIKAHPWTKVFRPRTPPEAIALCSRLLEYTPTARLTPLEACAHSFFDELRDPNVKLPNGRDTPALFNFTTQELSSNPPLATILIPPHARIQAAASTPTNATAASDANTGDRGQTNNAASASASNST
Sequence of Dual specificity mitogen-activated protein kinase kinase 2 (P36507 whole entry): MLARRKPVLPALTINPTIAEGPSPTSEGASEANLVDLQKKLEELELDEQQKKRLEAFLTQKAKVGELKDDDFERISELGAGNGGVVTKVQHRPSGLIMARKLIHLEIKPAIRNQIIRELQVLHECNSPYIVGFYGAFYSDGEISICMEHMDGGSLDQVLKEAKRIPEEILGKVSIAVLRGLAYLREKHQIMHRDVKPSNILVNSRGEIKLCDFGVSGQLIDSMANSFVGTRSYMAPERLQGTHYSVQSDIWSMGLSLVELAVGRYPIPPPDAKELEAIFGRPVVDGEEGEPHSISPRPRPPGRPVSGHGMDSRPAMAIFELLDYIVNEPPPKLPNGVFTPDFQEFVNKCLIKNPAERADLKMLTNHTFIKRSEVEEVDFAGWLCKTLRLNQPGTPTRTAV
Sequence of cAMP-dependent protein kinase type II-alpha regulatory subunit (P13861 whole entry): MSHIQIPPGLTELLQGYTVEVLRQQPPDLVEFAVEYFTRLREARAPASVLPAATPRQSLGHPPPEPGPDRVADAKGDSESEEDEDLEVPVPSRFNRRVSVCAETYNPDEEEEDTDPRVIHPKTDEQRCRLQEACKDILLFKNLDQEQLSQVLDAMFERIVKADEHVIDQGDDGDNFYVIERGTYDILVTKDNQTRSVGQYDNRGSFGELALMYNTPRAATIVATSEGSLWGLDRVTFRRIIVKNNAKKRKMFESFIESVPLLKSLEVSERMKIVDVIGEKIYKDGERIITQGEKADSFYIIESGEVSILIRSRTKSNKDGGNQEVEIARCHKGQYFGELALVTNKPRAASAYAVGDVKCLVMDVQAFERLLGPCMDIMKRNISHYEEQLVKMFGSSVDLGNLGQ
Sequence of DNA topoisomerase 2-beta (Q02880 whole entry): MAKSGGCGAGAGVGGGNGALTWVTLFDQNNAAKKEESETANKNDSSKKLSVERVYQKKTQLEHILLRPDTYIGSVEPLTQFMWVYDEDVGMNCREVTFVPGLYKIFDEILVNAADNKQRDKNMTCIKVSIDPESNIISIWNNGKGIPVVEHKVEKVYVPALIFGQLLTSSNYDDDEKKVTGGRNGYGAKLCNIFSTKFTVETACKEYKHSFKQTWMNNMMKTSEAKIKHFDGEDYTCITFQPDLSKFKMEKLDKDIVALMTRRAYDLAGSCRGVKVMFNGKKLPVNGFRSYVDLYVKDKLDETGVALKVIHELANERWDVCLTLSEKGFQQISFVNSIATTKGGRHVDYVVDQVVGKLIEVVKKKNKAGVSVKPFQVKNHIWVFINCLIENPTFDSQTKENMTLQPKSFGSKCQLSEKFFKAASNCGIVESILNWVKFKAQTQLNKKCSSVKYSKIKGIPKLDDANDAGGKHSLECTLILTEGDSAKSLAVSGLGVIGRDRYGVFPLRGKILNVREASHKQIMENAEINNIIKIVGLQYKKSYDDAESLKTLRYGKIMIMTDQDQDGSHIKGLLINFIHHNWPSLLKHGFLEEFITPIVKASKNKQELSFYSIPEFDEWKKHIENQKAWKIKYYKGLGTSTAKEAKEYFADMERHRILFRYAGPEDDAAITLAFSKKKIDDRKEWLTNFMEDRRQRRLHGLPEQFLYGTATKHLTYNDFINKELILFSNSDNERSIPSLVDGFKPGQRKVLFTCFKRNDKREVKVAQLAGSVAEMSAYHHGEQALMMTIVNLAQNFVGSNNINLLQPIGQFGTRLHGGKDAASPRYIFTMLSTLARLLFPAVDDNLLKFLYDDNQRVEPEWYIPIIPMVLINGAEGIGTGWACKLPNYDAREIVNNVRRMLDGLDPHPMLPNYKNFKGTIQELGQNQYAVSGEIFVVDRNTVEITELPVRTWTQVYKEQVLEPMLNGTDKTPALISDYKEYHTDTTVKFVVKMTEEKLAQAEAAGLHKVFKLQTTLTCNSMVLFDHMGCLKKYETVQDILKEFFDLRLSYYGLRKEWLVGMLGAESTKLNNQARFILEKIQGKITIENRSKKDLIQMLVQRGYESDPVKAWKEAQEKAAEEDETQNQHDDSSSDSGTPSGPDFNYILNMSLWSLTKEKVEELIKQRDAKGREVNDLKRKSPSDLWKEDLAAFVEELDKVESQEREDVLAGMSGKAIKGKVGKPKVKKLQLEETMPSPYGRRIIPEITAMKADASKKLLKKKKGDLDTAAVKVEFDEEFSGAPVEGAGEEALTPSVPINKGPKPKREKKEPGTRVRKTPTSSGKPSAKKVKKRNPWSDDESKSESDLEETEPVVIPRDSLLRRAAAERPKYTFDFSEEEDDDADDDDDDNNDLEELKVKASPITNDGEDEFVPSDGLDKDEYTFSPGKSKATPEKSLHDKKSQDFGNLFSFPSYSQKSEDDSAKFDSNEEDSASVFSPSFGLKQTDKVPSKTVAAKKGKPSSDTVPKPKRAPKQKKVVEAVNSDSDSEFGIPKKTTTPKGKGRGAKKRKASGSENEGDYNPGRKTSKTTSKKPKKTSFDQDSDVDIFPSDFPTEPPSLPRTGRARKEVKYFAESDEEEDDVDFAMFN

With `CC(=O)c1cnc2ccc(-c3cc(Cl)c(O)c(Cl)c3)nc2c1N[C@H]1CC[C@H](CN(C)C)CC1`, the Kd (at Actin-related protein 2; in assay [1]; in [2]; in assay [3]; in [4]; in assay [5]) was > 30 µM (inactive) each time. The equilibrium dissociation constant (Kd) in assay [6] was 0.005 µM (active); in assay [7], 0.01 µM; on DNA topoisomerase 2-beta, > 30 µM (inactive).

Turning to `C=CC(=O)N1CCC[C@H](n2c(=O)n(-c3ccc(Oc4ccccc4)cc3)c3c(N)ncnc32)C1`, the Kd (at Actin-related protein 2; in assay [1]; in assay [2]; in assay [8]; in assay [3]; in [4]) was > 30 µM (inactive) in each case. Moreover, the Kd in [5] was > 30 µM (inactive); in assay [6], 0.007 µM; in [7], > 30 µM (inactive); on DNA topoisomerase 2-beta, > 30 µM (inactive).

`Cc1nc2cc(-c3nn(C(C)C)c4ncnc(N)c34)ccc2o1`: the Kd on Actin-related protein 2 is > 30 µM (inactive); in assay [1], > 30 µM (inactive); in assay [2], > 30 µM (inactive); in [3], 1.92 µM (active); in assay [4], > 30 µM (inactive); in assay [5], > 30 µM (inactive). For the same molecule, the Kd is 0.178 µM (active) in assay [6], 1.73 µM (active) in assay [7] and > 30 µM (inactive) at DNA topoisomerase 2-beta.

For `COCc1c(-c2ccc(NC(=O)Nc3cc(C(F)(F)F)ccc3F)c(F)c2)c2c(N)ncnn2c1CN1CCOCC1`, the Kd (on Actin-related protein 2; in assay [1]; in assay [2]; in assay [8]; in assay [3]; in assay [4]) was > 30 µM (inactive) in each case. Moreover, the Kd (in [5]; in [6]; in assay [7]; on DNA topoisomerase 2-beta) was > 30 µM (inactive) throughout.

`O=C(Nc1c[nH]nc1-c1nc2cc(CN3CCOCC3)ccc2[nH]1)NC1CC1` [AT-9283]: the Kd on Actin-related protein 2 was > 30 µM (inactive); in assay [1] it was > 30 µM (inactive); in [2], > 30 µM (inactive); in assay [8] it was 0.007 µM (active); in [3], > 30 µM (inactive); in assay [5], > 30 µM (inactive). In addition, the Kd (in assay [6]; in [7]; on DNA topoisomerase 2-beta) was > 30 µM (inactive) throughout.

As to `Cc1cc(C(=O)NOCCO)c(Nc2ccc(I)cc2F)n(C)c1=O` [AZD-8330], the Kd (on Actin-related protein 2; in assay [1]; in [2]; in assay [8]; in [4]; in assay [5]) was > 30 µM (inactive) in each case. In addition, the Kd (in assay [6]; in [7]; at DNA topoisomerase 2-beta) was > 30 µM (inactive) throughout.

With `CCn1cc(-c2ccnc3[nH]c(-c4cccc(CN(C)C)c4)cc23)c(-c2ccc(NC(=O)N(C)C)cc2)n1` [GSK-1070916], the Kd (at Actin-related protein 2; in assay [1]; in assay [2]; in [8]; in assay [3]; in [4]) was > 30 µM (inactive) each time. The Kd in [5] is > 30 µM (inactive); in assay [6], 0.611 µM (active); at DNA topoisomerase 2-beta, > 30 µM (inactive).

As for `CNC(=O)c1nn(C)c2c1C(C)(C)Cc1cnc(Nc3ccc(N4CCN(C)CC4)cc3)nc1-2` [MILCICLIB], the Kd in assay [1], in assay [2], in [8], in assay [3], in assay [5] and in assay [6] was > 30 µM (inactive) each time. In addition, the values for the dissociation constant (Kd) (in [7]; at DNA topoisomerase 2-beta) were 5.25 µM (active) and > 30 µM (inactive), respectively.

Turning to `NC1(c2ccc(-c3nc4ccn5c(=O)[nH]nc5c4cc3-c3ccccc3)cc2)CCC1` [MK-2206], the Kd (at Actin-related protein 2; in [2]; in assay [8]; in assay [3]; in assay [4]; in [5]) was > 30 µM (inactive) throughout. For the same molecule, the Kd (in assay [6]; in assay [7]; at DNA topoisomerase 2-beta) was > 30 µM (inactive) in each case.

On to `Cc1[nH]c(/C=C2\C(=O)Nc3ccccc32)c(C)c1CCC(=O)O` [ORANTINIB], for which the Kd on Actin-related protein 2 is > 30 µM (inactive); in assay [2], > 30 µM (inactive); in [3], 3.23 µM (active); in assay [4], > 30 µM (inactive); in assay [5], > 30 µM (inactive); in assay [6] it was > 30 µM (inactive). The Kd (in assay [7]; at DNA topoisomerase 2-beta) was > 30 µM (inactive) each time.

With `CCOc1cc2ncc(C#N)c(Nc3ccc(F)c(Cl)c3)c2cc1NC(=O)/C=C/CN(C)C` [PELITINIB], the Kd (at Actin-related protein 2; in assay [1]; in [2]; in [8]; in [4]; in [5]) was > 30 µM (inactive) throughout. In addition, the Kd (in assay [6]; in [7]; on DNA topoisomerase 2-beta) was > 30 µM (inactive) each time.

As to `CCCCCCCCCCCCCCCCCCOP(=O)([O-])OC1CC[N+](C)(C)CC1` [PERIFOSINE], the Kd (on Actin-related protein 2; in assay [1]; in [2]; in assay [8]; in assay [3]; in assay [4]) was > 30 µM (inactive) each time. Besides, the Kd (in assay [6]; in assay [7]; at DNA topoisomerase 2-beta) was > 30 µM (inactive) throughout.
